Measurements from patent US10285983B2, “3-(1H-pyrrolo[2,3-B]pyridin-2-yl)-1H-pyrazolo[3,4-B] pyridines and therapeutic uses thereof” (Samumed, LLC, priority 2015, dated 2019).

System: IL-6 (THP-1 human monocyte cell line)
Experiment: IL-6 inhibition in LPS-stimulated THP-1 cells (HTRF)
Assay type: cell-based
Conditions: LPS 500 ng/mL; for EC50: 22 hours, IL6 HTRF; for inhibition at 10 µM: given for EC50 >10 μM, read-out: percent inhibition at 10 μM
Procedure: Human monocyte cell line (THP-1 cells; Catalog # TIB-202, ATCC, Manassas, Va.) were cultured in Roswell Park Memorial Institute (RPMI) 1640 Medium (Catalog #21870-100, Buffalo, N.Y.) with 1% L-glutamine, 1% HEPES, 1% Sodium Pyruvate, 2% Sodium Bicarbonate supplemented with 100 units/mL penicillin, 50 μg/mL streptomycin, 2-mercaptoethanol (0.05 mM) [basal medium] and 10% fetal bovine serum (Catalog #16140089, Life Technologies, Carlsbad, Calif.) at 37° C. and 5% CO2.
THP-1 cells were cultured in basal media with 1% FBS for 24 hours before the start of the assay. Each compound was dissolved in DMSO as a 10 mM stock and used to prepare compound source plates. Serial dilution (1:3, 10-point dose-response curves starting from […]) and compound transfer was performed using the ECHO 550 (Labcyte, Sunnyvale, Calif.) into 384-well white low volume assay plates (Greiner Bio-One) with appropriate DMSO backfill for a final DMSO concentration of 0.1%. THP-1 cells were plated at 5000 cells/well in the 384-well plates and incubated at 37° C. for 2 h. 500 ng/mL of LPS was added after 2 hours and cells were incubated for another 22 hours at 37° C. Plates were spun in a centrifuge for 1 minute at 10,000 rpm and a mixture of anti-IL6 XL665, and anti-IL6 Cryptate diluted in reconstitution buffer (Cisbio Inc.) was added to each well. Following incubation for 3 hrs at room temperature, Homogeneous Time-Resolved Fluorescence (HTRF) was measured using the Envision (Perkin Elmer) at 665 nm and […]. The ratio of fluorescence at 665 nm to 620 nm was used as a readout for IL6 quantification. All samples were processed in duplicate. Readings were normalized to DMSO treated cells and normalized activities were utilized for EC50 calculations using the dose-response log (inhibitor) vs. response—variable slope (four parameters) nonlinear regression feature available in GraphPad Prism 5.0 (or Dotmatics). For EC50 of >10 μM, the percent inhibition at 10 μM is provided.

SMILES	EC50	inhibition at 10 µM
c1csc(-c2ccnc3[nH]c(-c4n[nH]c5ncc(-c6cncc(OC7CCCCC7)c6)cc45)cc23)c1 [Compound 703, 5-(5-(Cyclohexyloxy)pyridin-3-yl)-3-(4-(thiophen-2-yl)-1H-pyrrolo[2,3-b]pyridin-2-yl)-1H-pyrazolo[3,4-b]pyridine]	> 10 µM	11%
CC(C)Nc1cncc(-c2cnc3[nH]nc(-c4cc5c(-c6cccnc6)ccnc5[nH]4)c3c2)c1 [Compound 96, N-Isopropyl-5-(3-(4-(pyridin-3-yl)-1H-pyrrolo[2,3-b]pyridin-2-yl)-1H-pyrazolo[3,4-b]pyridin-5-yl)pyridin-3-amine]	0.094 µM	
c1ncc(-c2cnc3[nH]nc(-c4cc5c(N6CCCCC6)ccnc5[nH]4)c3c2)cn1 [Compound 195, 3-(4-(Piperidin-1-yl)-1H-pyrrolo[2,3-b]pyridin-2-yl)-5-(pyrimidin-5-yl)-1H-pyrazolo[3,4-b]pyridine]	> 10 µM	49.8%
CN1CCN(c2ccnc3[nH]c(-c4n[nH]c5ncc(-c6cncc(NC(=O)C7CCCCC7)c6)cc45)cc23)CC1 [Compound 247, N-(5-(3-(4-(4-Methylpiperazin-1-yl)-1H-pyrrolo[2,3-b]pyridin-2-yl)-1H-pyrazolo[3,4-b]pyridin-5-yl)pyridin-3-yl)cyclohexanecarboxamide]	0.496 µM	
CC(C)CC(=O)Nc1cncc(-c2cnc3[nH]nc(-c4cc5c(-c6ccc(F)cc6)ccnc5[nH]4)c3c2)c1 [Compound 30, N-(5-(3-(4-(4-Fluorophenyl)-1H-pyrrolo[2,3-b]pyridin-2-yl)-1H-pyrazolo [3,4-b]pyridin-5-yl)pyridin-3-yl)-3-methylbutanamide]	> 10 µM	0%
CC(C)(C)CC(=O)Nc1cncc(-c2cnc3[nH]nc(-c4cc5c(-c6ccccc6F)ccnc5[nH]4)c3c2)c1 [Compound 72, N-(5-(3-(4-(2-Fluorophenyl)-1H-pyrrolo[2,3-b]pyridin-2-yl)-1H-pyrazolo [3,4-b]pyridin-5-yl)pyridin-3-yl)-3,3-dimethylbutanamide]	> 10 µM	38.1%
c1cnc2[nH]c(-c3n[nH]c4ncc(-c5ccncc5)cc34)cc2c1 [Compound 270, 5-(Pyridin-4-yl)-3-(1H-pyrrolo[2,3-b]pyridin-2-yl)-1H-pyrazolo[3,4-b]pyridine]	4.65 µM	
O=C(Nc1cncc(-c2cnc3[nH]nc(-c4cc5c(-c6cccc(F)c6)ccnc5[nH]4)c3c2)c1)c1ccccc1 [Compound 11, N-(5-(3-(4-(3-Fluorophenyl)-1H-pyrrolo[2,3-b]pyridin-2-yl)-1H-pyrazolo [3,4-b]pyridin-5-yl)pyridin-3-yl)benzamide]	> 10 µM	14.1%
Fc1ccc(-c2ccnc3[nH]c(-c4n[nH]c5ncc(-c6cncc(CN7CCC(F)(F)C7)c6)cc45)cc23)cc1 [Compound 54, 5-(5-((3,3-Difluoropyrrolidin-1-yl)methyl)pyridin-3-yl)-3-(4-(4-fluorophenyl)-1H-pyrrolo[2,3-b]pyridin-2-yl)-1H-pyrazolo[3,4-b]pyridine]	> 10 µM	32.3%
O=C(Nc1cncc(-c2cnc3[nH]nc(-c4cc5c(-c6ccc(F)cc6)ccnc5[nH]4)c3c2)c1)C1CCCCC1 [Compound 51, N-(5-(3-(4-(4-Fluorophenyl)-1H-pyrrolo[2,3-b]pyridin-2-yl)-1H-pyrazolo [3,4-b]pyridin-5-yl)pyridin-3-yl)cyclohexanecarboxamide]	> 10 µM	19.4%
O=C(Nc1cncc(-c2cnc3[nH]nc(-c4cc5c(-c6cccs6)ccnc5[nH]4)c3c2)c1)C1CC1 [Compound 356, N-(5-(3-(4-(Thiophen-2-yl)-1H-pyrrolo[2,3-b]pyridin-2-yl)-1H-pyrazolo[3,4-b]pyridin-5-yl)pyridin-3-yl)cyclopropanecarboxamide]	0.28 µM	
CN(C)CCNc1cc(F)cc(-c2ccnc3[nH]c(-c4n[nH]c5ncc(-c6cncc(NC(=O)C(C)(C)C)c6)cc45)cc23)c1 [Compound 456, N-(5-(3-(4-(3-((2-(Dimethylamino)ethyl)amino)-5-fluorophenyl)-1H-pyrrolo [2,3-b]pyridin-2-yl)-1H-pyrazolo[3,4-b]pyridin-5-yl)pyridin-3-yl)pivalamide]	1.52 µM	
Cc1ncc(-c2cnc3[nH]nc(-c4cc5c(-c6cc(F)cc(NCCN(C)C)c6)ccnc5[nH]4)c3c2)n1C [Compound 781, N^1-(3-(2-(5-(1,2-Dimethyl-1H-imidazol-5-yl)-1H-pyrazolo[3,4-b]pyridin-3-yl)-1H-pyrrolo[2,3-b]pyridin-4-yl)-5-fluorophenyl)-N^2,N^2-dimethylethane-1,2-diamine]	> 10 µM	44.5%
Cc1ccncc1-c1cnc2[nH]nc(-c3cc4c(-c5ccncc5)ccnc4[nH]3)c2c1 [Compound 117, 5-(4-Methylpyridin-3-yl)-3-(4-(pyridin-4-yl)-1H-pyrrolo[2,3-b]pyridin-2-yl)-1H-pyrazolo[3,4-b]pyridine]	> 10 µM	17.1%

Second part, led by results:

EC50	SMILES	inhibition at 10 µM
0.627 µM	O=C(Nc1cncc(-c2cnc3[nH]nc(-c4cc5c(-c6ccccc6F)ccnc5[nH]4)c3c2)c1)C1CCCC1 [Compound 78, N-(5-(3-(4-(2-Fluorophenyl)-1H-pyrrolo[2,3-b]pyridin-2-yl)-1H-pyrazolo [3,4-b]pyridin-5-yl)pyridin-3-yl)cyclopentanecarboxamide]	
> 10 µM	c1cc(-c2cnc3[nH]nc(-c4cc5c(-c6ccncc6)ccnc5[nH]4)c3c2)ccn1 [Compound 130, 5-(Pyridin-4-yl)-3-(4-(pyridin-4-yl)-1H-pyrrolo[2,3-b]pyridin-2-yl)-1H-pyrazolo[3,4-b]pyridine]	45.9%
> 10 µM	O=C(Nc1cncc(-c2cnc3[nH]nc(-c4cc5c(-c6ccncc6)ccnc5[nH]4)c3c2)c1)c1ccccc1 [Compound 123, N-(5-(3-(4-(Pyridin-4-yl)-1H-pyrrolo[2,3-b]pyridin-2-yl)-1H-pyrazolo[3,4-b]pyridin-5-yl)pyridin-3-yl)benzamide]	15.1%
> 10 µM	CC(C)C(=O)Nc1cncc(-c2cnc3[nH]nc(-c4cc5c(-c6ccccc6F)ccnc5[nH]4)c3c2)c1 [Compound 65, N-(5-(3-(4-(2-Fluorophenyl)-1H-pyrrolo[2,3-b]pyridin-2-yl)-1H-pyrazolo [3,4-b]pyridin-5-yl)pyridin-3-yl)isobutyramide]	25.6%
2.13 µM	O=C(Nc1cncc(-c2cnc3[nH]nc(-c4cc5c(-c6cccc(F)c6)ccnc5[nH]4)c3c2)c1)C1CC1 [Compound 20, N-(5-(3-(4-(3-Fluorophenyl)-1H-pyrrolo[2,3-b]pyridin-2-yl)-1H-pyrazolo [3,4-b]pyridin-5-yl)pyridin-3-yl)cyclopropanecarboxamide]	
0.222 µM	CN(C)CCNc1cc(F)cc(-c2ccnc3[nH]c(-c4n[nH]c5ncc(-c6cncc(NC(=O)C7CCC7)c6)cc45)cc23)c1 [Compound 469, N-(5-(3-(4-(3-((2-(Dimethylamino)ethyl)amino)-5-fluorophenyl)-1H-pyrrolo [2,3-b]pyridin-2-yl)-1H-pyrazolo[3,4-b]pyridin-5-yl)pyridin-3-yl)cyclobutanecarboxamide]	
> 10 µM	CCCC(=O)Nc1cncc(-c2cnc3[nH]nc(-c4cc5c(N6CCCCC6)ccnc5[nH]4)c3c2)c1 [Compound 185, N-(5-(3-(4-(Piperidin-1-yl)-1H-pyrrolo[2,3-b]pyridin-2-yl)-1H-pyrazolo[3,4-b]pyridin-5-yl)pyridin-3-yl)butyramide]	41.2%
0.415 µM	O=C(Nc1cncc(-c2cnc3[nH]nc(-c4cc5cccnc5[nH]4)c3c2)c1)C1CCCC1 [Compound 274, N-(5-(3-(1H-Pyrrolo[2,3-b]pyridin-2-yl)-1H-pyrazolo[3,4-b]pyridin-5-yl)pyridin-3-yl)cyclopentanecarboxamide]	
0.463 µM	c1cc(N2CCCCC2)c2cc(-c3n[nH]c4ncc(-c5cncc(CN6CCCC6)c5)cc34)[nH]c2n1 [Compound 182, 3-(4-(Piperidin-1-yl)-1H-pyrrolo[2,3-b]pyridin-2-yl)-5-(5-(pyrrolidin-1-ylmethyl)pyridin-3-yl)-1H-pyrazolo[3,4-b]pyridine]	
> 10 µM	CC(C)(C)CC(=O)Nc1cncc(-c2cnc3[nH]nc(-c4cc5c(-c6ccoc6)ccnc5[nH]4)c3c2)c1 [Compound 324, N-(5-(3-(4-(Furan-3-yl)-1H-pyrrolo[2,3-b]pyridin-2-yl)-1H-pyrazolo[3,4-b]pyridin-5-yl)pyridin-3-yl)-3,3-dimethylbutanamide]	28.6%
1.2 µM	CC(C)(C)C(=O)Nc1cncc(-c2cnc3[nH]nc(-c4cc5c(N6CCCCC6)ccnc5[nH]4)c3c2)c1 [Compound 176, N-(5-(3-(4-(Piperidin-1-yl)-1H-pyrrolo[2,3-b]pyridin-2-yl)-1H-pyrazolo[3,4-b]pyridin-5-yl)pyridin-3-yl)pivalamide]	
